The text below walks through data of US20240360151A1 (SANOFI, priority 2023, published 2024).

pIC50: −log10 of the molar value. Where a name gives a salt, the structure may show the parent alone.

This experiment deals with T1, NLRP3 inflammasome (Homo sapiens, UniProt Q96P20).
T1 construct: endogenous in cells; host or cells: THP-1 monocytic cells
T1 sequence (Q96P20 whole entry): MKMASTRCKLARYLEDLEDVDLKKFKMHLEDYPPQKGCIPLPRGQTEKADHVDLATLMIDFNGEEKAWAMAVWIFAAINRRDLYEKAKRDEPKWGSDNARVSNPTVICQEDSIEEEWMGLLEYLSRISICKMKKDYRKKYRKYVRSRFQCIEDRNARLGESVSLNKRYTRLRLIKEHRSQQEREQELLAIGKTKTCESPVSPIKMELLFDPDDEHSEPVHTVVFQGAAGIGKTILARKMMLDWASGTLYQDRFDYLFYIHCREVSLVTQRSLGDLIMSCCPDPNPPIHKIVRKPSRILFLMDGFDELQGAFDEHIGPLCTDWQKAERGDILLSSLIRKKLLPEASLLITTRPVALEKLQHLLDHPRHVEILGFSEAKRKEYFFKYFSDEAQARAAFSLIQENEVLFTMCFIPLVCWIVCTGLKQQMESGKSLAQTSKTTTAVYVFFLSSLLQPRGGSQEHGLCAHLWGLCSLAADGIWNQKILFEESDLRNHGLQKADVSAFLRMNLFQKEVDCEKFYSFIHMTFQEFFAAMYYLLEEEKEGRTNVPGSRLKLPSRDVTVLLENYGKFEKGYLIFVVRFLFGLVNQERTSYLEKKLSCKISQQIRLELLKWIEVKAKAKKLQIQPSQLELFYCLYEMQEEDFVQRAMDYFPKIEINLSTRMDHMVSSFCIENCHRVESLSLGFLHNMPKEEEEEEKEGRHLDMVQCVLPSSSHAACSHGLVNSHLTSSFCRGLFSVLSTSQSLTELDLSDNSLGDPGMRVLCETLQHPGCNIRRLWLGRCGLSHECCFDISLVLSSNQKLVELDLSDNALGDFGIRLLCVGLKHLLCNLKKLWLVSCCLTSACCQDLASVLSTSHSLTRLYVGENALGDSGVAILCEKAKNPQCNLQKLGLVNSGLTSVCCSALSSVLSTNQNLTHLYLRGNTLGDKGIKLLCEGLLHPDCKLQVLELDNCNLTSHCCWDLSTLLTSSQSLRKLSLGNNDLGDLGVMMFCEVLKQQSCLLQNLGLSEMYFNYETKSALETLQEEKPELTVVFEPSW
The experiment can be described thus: IL-1β secretion assay (NLRP3 IC50) in LPS-primed, nigericin-activated THP-1 cells, HTRF. The format is cell-based. The settings on record: monocytic THP-1 cells; LPS 10 ng/mL 3 h priming, then compound + nigericin 10 μM 2 h; relative IC50, 10 concentrations, geometric mean. The procedure, abridged: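 THP-1 cells primed with LPS 10 ng/mL for 3 h at 37° C., then compound (10-point 1:3 dilution, 0.1% DMSO) added with 10 μM nigericin for 2 h. Supernatant IL-1β measured by HTRF; relative IC50 from a 4-parameter logistic fit, reported as geometric mean.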
For `CC(=O)N1CC[C@H]2CCN(c3ccc(-c4c(C)cc(C(F)(F)F)cc4O)nn3)[C@H]2C1` [Example 369, 1-[(3aR,7aR)-1-[6-[2-hydroxy-6-methyl-4-(trifluoromethyl)phenyl]pyridazin-3-yl]-3,3a,4,5,7,7a-hexahydro-2H-pyrrolo[2,3-c]pyridin-6-yl]ethanone], the pIC50 is 6.32. On to `Cc1cc(C)c(-c2ccc(N3CCO[C@H](CS)C3)nn2)c(O)c1` [Example 303, 3,5-dimethyl-2-[6-[(2S)-2-(sulfanylmethyl)morpholin-4-yl]pyridazin-3-yl]phenol], for which the pIC50 is 5.41. As to `CN(C)C[C@@H]1CN(c2ccc(-c3c(O)cc(Cl)cc3Cl)nn2)CCO1` [Example 43, 3,5-dichloro-2-[6-[(2R)-2-[(dimethylamino)methyl]morpholin-4-yl]pyridazin-3-yl]phenol], the pIC50 was 6.22.

For `Cc1cc(C)c(-c2ccc(N3CCO[C@@H]4CCN(CCF)C[C@@H]43)nn2)c(O)c1` [Example 521, 2-[6-[(4aS,8aR)-6-(2-fluoroethyl)-3,4a,5,7,8,8a-hexahydro-2H-pyrido[4,3-b][1,4]oxazin-4-yl]pyridazin-3-yl]-3,5-dimethyl-phenol], the pIC50 is 7.55. In the case of `CCc1cccc(O)c1-c1ccc(N2CC[C@@H]3CCN(C)C[C@@H]32)nn1` (single isomer, unassigned) [Example 422], the pIC50 was 5.94. As for `O=S1(=O)CCN(c2ccc(-c3c(O)cc(Cl)cc3Cl)nn2)CC1` [Example 399, 3,5-dichloro-2-[6-(1,1-dioxo-1,4-thiazinan-4-yl)pyridazin-3-yl]phenol], the figure is 6.25; as for `Cc1cc(C)c(-c2ccc(N3CCO[C@H]4CCN(C)C[C@H]43)nn2)c(O)c1` [Example 310, 2-[6-[(4aR,8aS)-6-methyl-3,4a,5,7,8,8a-hexahydro-2H-pyrido[4,3-b][1,4]oxazin-4-yl]pyridazin-3-yl]-3,5-dimethyl-phenol], 6.30; as for `Cc1cc(C)c(-c2ccc(N3CC[C@]4(CN(C)CCO4)C3)nn2)c(O)c1` [Example 445, 3,5-dimethyl-2-[6-[(5S)-9-methyl-6-oxa-2,9-diazaspiro[4.5]decan-2-yl]pyridazin-3-yl]phenol], 5.72.

For `CN(C)C[C@@H]1CCCN(c2ccc(-c3c(O)cc(Cl)cc3Cl)nn2)C1` [Example 51, 3,5-dichloro-2-[6-[(3S)-3-[(dimethylamino)methyl]-1-piperidyl]pyridazin-3-yl]phenol], the negative-log IC50 (pIC50) is 5.98. Consider `CN1CC[C@@H]2CCN(c3cc(C(F)F)c(-c4ccc(Cl)cc4O)nn3)[C@@H]2C1` (single isomer, unassigned) [Example 501], for which the pIC50 was greater than 9.52. Turning to `CC(=O)N1CC[C@@H]2CCN(c3ccc(-c4c(C)cc(C)cc4O)nn3)[C@@H]2C1` (single isomer, unassigned) [Example 414], the pIC50 is 6.16. On to `CCN1CCO[C@@H]2CN(c3ccc(-c4c(C)cc(C)cc4O)nn3)C[C@H]21` [Example 168, 2-[6-[(4aR,7aR)-4-ethyl-2,3,4a,5,7,7a-hexahydropyrrolo[3,4-b][1,4]oxazin-6-yl]pyridazin-3-yl]-3,5-dimethylphenol], for which the pIC50 is 5.47. As for `CC(=O)NC1CC2(CCN(c3ccc(-c4c(O)cc(Cl)cc4Cl)nn3)CC2)C1` [Example 47, N-[7-[6-(2,4-dichloro-6-hydroxy-phenyl)pyridazin-3-yl]-7-azaspiro[3.5]nonan-2-yl]acetamide], the pIC50 was 5.98.

Turning to `CCN1CC[C@@H]2CCN(c3ccc(-c4c(O)cccc4C(F)(F)F)nn3)[C@@H]2C1` (single isomer, unassigned) [Example 473], the pIC50 was 8.30. As for `CN1CC[C@H]2OCCN(c3cc(C(F)F)c(-c4cccc(F)c4O)nn3)[C@H]2C1` [Example 351, 2-[6-[(4aS,8aR)-6-methyl-3,4a,5,7,8,8a-hexahydro-2H-pyrido[4,3-b][1,4]oxazin-4-yl]-4-(difluoromethyl)pyridazin-3-yl]-6-fluoro-phenol], the figure is 6.78; as for `Cc1cc(C)c(-c2ccc(N3CCO[C@H](CC(=O)N(C)C)C3)nn2)c(O)c1` (single isomer, unassigned) [Example 150], 5.75. As for `CCc1cc(N2CCO[C@@H]3CCN(C)C[C@@H]32)nnc1-c1ccc(C)cc1O` [Example 470, 2-[6-[(4aS,8aR)-6-methyl-3,4a,5,7,8,8a-hexahydro-2H-pyrido[4,3-b][1,4]oxazin-4-yl]-4-ethyl-pyridazin-3-yl]-5-methyl-phenol], the pIC50 was 9.42. `Cc1cc(C(F)(F)F)cc(O)c1-c1ccc(N2CCO[C@@H]3CNC[C@H]32)nn1` (racemic) [Example 318, 3-methyl-2-[6-[rac-(4aR,7aR)-3,4a,5,6,7,7a-hexahydro-2H-pyrrolo[3,4-b][1,4]oxazin-4-yl]pyridazin-3-yl]-5-(trifluoromethyl)phenol; hydrochloride]: the pIC50 is 6.05.

With `Cc1cc(C)c(-c2ccc(N3CCc4cccc(O)c43)nn2)c(O)c1` [Example 253, 1-[6-(2-hydroxy-4,6-dimethyl-phenyl)pyridazin-3-yl]indolin-7-ol], the pIC50 is 5.17.

In the case of `Cc1cc(C(F)(F)F)cc(O)c1-c1ccc(N2CCO[C@@H]3CCN(C)C[C@H]32)nn1` (single isomer, unassigned) [Example 301], the pIC50 was 6.06. Take `Cc1cc(C(F)(F)F)cc(O)c1-c1ccc(N2CC[C@@H]3CN(C)C[C@@H]32)nn1` (single isomer, unassigned) [Example 271]: the pIC50 is 6.16. With `CN1CC[C@H]2OCCN(c3ccc(-c4c(O)cccc4C(F)(F)F)nn3)[C@H]2C1` [Example 402, 2-[6-[(4aS,8aR)-6-methyl-3,4a,5,7,8,8a-hexahydro-2H-pyrido[4,3-b][1,4]oxazin-4-yl]pyridazin-3-yl]-3-(trifluoromethyl)phenol], the pIC50 was 7.66. Regarding `Cc1ccc(O)c(-c2ccc(N3CCO[C@H](CO)C3)nn2)c1C` [Example 191, 2-[6-[(2S)-2-(hydroxymethyl)morpholin-4-yl]pyridazin-3-yl]-3,4-dimethylphenol], the pIC50 was 5.95. `Cc1cc(C)c(-c2ccc(N3CCO[C@@H]4C[C@@H](O)C[C@@H]43)nn2)c(O)c1` (single isomer, unassigned) [Example 466]: the pIC50 is 7.00.

Regarding `Cc1cc(C(F)(F)F)cc(O)c1-c1ccc(N2CCO[C@@H]3CCOC[C@@H]32)nn1` (racemic) [Example 438, 3-methyl-2-[6-[rac-(4aS,8aR)-3,4a,5,7,8,8a-hexahydro-2H-pyrano[4,3-b][1,4]oxazin-4-yl]pyridazin-3-yl]-5-(trifluoromethyl)phenol], the pIC50 is 6.39. With `Oc1cc(Cl)cc(Cl)c1-c1ccc(N2CCC(F)(F)CC2)nn1` [Example 49, 3,5-dichloro-2-[6-(4,4-difluoro-1-piperidyl)pyridazin-3-yl]phenol], the pIC50 was 6.17. Take `CCN[C@H]1CCCN(c2ccc(-c3c(C)cc(C)cc3O)nn2)C1` [Example 68, 2-[6-[(3S)-3-(ethylamino)-1-piperidyl]pyridazin-3-yl]-3,5-dimethyl-phenol]: the pIC50 was 5.91. In the case of `Cc1cc(C(F)(F)F)cc(O)c1-c1ccc(N2CC[C@@H]3NCC[C@@H]32)nn1` (racemic) [Example 346, 3-methyl-2-[6-[rac-(3aS,6aS)-2,3,3a,5,6,6a-hexahydro-1H-pyrrolo[3,2-b]pyrrol-4-yl]pyridazin-3-yl]-5-(trifluoromethyl)phenol;hydrochloride], the pIC50 is 6.67. Take `CCN1CC[C@H]2OCCN(c3cc(C)c(-c4ccc(F)cc4O)nn3)[C@H]2C1` [Example 479, 2-[6-[(4aS,8aR)-6-ethyl-3,4a,5,7,8,8a-hexahydro-2H-pyrido[4,3-b][1,4]oxazin-4-yl]-4-methyl-pyridazin-3-yl]-5-fluoro-phenol]: the pIC50 is 8.30. Turning to `Cc1cc(C)c(-c2ccc(N3CCO[C@@H]4CCOC[C@@H]43)nn2)c(O)c1` (racemic) [Example 403, 3,5-dimethyl-2-[6-[rac-(4aS,8aR)-3,4a,5,7,8,8a-hexahydro-2H-pyrano[4,3-b][1,4]oxazin-4-yl]pyridazin-3-yl]phenol], the pIC50 was 6.44.

For the compound `Cc1ccc(-c2nnc(N3CC[C@H]4CCN(C)C[C@H]43)cc2C(F)F)c(O)c1` (single isomer, unassigned) [Example 507], the pIC50 was 9.00.

As for `Cc1cc(C)c(-c2ccc(N3C[C@@H]4NCCO[C@H]4C3)nn2)c(O)c1` [Example 185, 2-[6-[(4aS,7aS)-3,4,4a,5,7,7a-hexahydro-2H-pyrrolo[3,4-b][1,4]oxazin-6-yl]pyridazin-3-yl]-3,5-dimethylphenol], the pIC50 is 5.49. `CC(=O)N1CC[C@@H]2OCCN(c3ccc(-c4c(C)cc(Cl)cc4O)nn3)[C@@H]2C1` (single isomer, unassigned) [Example 304]: the pIC50 was 6.85. With `Cc1cc(C(F)(F)F)cc(O)c1-c1ccc(N2CCC[C@H](CO)C2=O)nn1` (single isomer, unassigned) [Example 287], the pIC50 is 6.94. As for `CCc1cccc(O)c1-c1ccc(N2CCO[C@@H]3CCN(C(C)=O)C[C@@H]32)nn1` [Example 424, 1-[(4aS,8aR)-4-[6-(2-ethyl-6-hydroxy-phenyl)pyridazin-3-yl]-3,4a,5,7,8,8a-hexahydro-2H-pyrido[4,3-b][1,4]oxazin-6-yl]ethanone], the pIC50 is 6.40. For `Cc1cc(Cl)cc(O)c1-c1ccc(N2CCO[C@H](CF)C2)nn1` [Example 339, 5-chloro-2-[6-[(2S)-2-(fluoromethyl)morpholin-4-yl]pyridazin-3-yl]-3-methyl-phenol], the pIC50 was 6.88. As for `C#Cc1cc(C)c(-c2ccc(N3CCO[C@H](CO)C3)nn2)c(O)c1` [Example 508, 5-ethynyl-2-[6-[(2S)-2-(hydroxymethyl)morpholin-4-yl]pyridazin-3-yl]-3-methyl-phenol], the figure is 7.40.
